The values that follow come from ChEMBL document CHEMBL1201862, “PubChem BioAssay data set” (2004).

One assay relates to Vero. Description: Vero cell cytotoxicity, cytotoxicity control for flavivirus capping enzyme inhibitors (AID 588742). Conditions: Chlorocebus sabaeus. Format: functional.
Assay [1] in a line: BHK-21 cell cytotoxicity, cytotoxicity control for flavivirus guanylyltransferase probe project, secondary screen (AID 624078). Format: functional.
In assay [2] the target is T1, Neuropeptide Y receptor type 2 (Homo sapiens, UniProt P49146).
T1 sequence (P49146 whole entry): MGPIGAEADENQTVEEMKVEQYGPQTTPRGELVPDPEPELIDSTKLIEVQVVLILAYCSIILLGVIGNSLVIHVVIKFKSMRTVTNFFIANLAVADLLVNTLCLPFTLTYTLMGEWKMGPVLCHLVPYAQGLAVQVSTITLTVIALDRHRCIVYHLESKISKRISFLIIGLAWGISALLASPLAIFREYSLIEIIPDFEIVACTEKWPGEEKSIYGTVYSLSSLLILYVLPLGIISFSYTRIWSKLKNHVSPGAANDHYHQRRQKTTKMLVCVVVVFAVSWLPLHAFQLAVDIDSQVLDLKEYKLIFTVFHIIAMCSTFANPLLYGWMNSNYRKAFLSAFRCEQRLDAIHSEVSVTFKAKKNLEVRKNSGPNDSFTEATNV
The assay is described as follows: Fluorescence-based cell-based high-throughput dose response assay for agonists of NPY-Y2. [Related pubchem assays: 1703 (Screening assay (CNGC inhibitors).), 1359 (Screening assay (NPY-Y2 potentiators or agonists).), 1304 (Screening assay (NPY-Y1 potentiators or agonists).), 1710 (Screening assay (NPY-Y2 agonists).), 1791 (Summary AID.)]. Format: functional.

The nature of assay [3]: HEK293T cytotoxicity, dose response, cytotoxicity control for miR-122 modulator project, cell-based, activator set, cherry-pick (AID 720690).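 Further: HEK293T human cells scored for general mammalian cytotoxicity.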 Format: functional.
The test system of assay [4] is HEK293. Description: cells. Format: functional, cell-based. The note with it: Homo sapiens.
The target in assay [5] is Nucleotide-binding oligomerization domain-containing protein 2 (Homo sapiens, UniProt Q9HC29). Description: NOD2 signaling inhibitors, cell-based, luminescence, uHTS, HEK293 (AID 1566). Format: functional.
Sequence of Nucleotide-binding oligomerization domain-containing protein 2 (Q9HC29 whole entry, the tested form may be a part): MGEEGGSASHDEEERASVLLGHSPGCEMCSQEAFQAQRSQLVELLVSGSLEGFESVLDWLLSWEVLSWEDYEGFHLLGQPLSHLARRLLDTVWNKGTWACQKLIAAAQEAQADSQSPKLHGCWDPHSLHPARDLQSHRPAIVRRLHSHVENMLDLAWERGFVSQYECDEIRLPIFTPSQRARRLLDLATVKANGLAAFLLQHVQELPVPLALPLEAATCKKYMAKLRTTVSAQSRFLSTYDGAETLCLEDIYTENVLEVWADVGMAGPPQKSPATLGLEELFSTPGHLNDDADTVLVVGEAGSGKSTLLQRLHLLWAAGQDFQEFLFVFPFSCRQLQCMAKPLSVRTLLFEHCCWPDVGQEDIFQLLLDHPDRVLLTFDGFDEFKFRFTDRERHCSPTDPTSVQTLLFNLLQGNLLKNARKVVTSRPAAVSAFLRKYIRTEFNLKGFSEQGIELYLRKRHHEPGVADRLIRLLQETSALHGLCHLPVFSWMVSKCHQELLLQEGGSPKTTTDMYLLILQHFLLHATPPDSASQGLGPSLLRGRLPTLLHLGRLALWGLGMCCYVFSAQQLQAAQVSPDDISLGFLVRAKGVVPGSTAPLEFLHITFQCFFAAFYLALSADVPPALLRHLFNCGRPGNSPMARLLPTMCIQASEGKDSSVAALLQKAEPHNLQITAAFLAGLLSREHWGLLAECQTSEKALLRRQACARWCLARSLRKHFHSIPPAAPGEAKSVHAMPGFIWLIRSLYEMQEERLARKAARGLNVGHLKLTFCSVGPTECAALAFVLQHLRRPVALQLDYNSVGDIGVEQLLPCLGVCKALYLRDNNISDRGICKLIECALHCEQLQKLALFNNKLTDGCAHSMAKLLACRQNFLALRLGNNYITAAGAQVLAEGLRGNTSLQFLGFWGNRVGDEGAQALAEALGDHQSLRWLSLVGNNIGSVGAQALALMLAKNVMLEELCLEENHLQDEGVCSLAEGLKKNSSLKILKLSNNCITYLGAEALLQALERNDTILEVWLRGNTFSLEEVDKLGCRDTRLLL
Assay [6] relates to HEK293. Description: NOD2 signaling inhibitors in MDP-stimulated cells, cell-based, uHTS, luminescence (AID 2001). Format: functional. Conditions: Homo sapiens.
Assay [7] can be described thus: Luminescence Cell-Based Secondary HTS screen to identify cytotoxic compounds of NIH3T3 cells. [Related pubchem assays: 1885, 1968 ]. Format: functional.
A short description of assay [8]: HepG2 cell cytotoxicity, dose response, cytotoxicity control for non-replicating M. tuberculosis project (AID 489018). Format: functional. Conditions: Mycobacterium tuberculosis.
For assay [9], the target named is T2, Microphthalmia-associated transcription factor (Homo sapiens, UniProt O75030).
T2 sequence (O75030 whole entry): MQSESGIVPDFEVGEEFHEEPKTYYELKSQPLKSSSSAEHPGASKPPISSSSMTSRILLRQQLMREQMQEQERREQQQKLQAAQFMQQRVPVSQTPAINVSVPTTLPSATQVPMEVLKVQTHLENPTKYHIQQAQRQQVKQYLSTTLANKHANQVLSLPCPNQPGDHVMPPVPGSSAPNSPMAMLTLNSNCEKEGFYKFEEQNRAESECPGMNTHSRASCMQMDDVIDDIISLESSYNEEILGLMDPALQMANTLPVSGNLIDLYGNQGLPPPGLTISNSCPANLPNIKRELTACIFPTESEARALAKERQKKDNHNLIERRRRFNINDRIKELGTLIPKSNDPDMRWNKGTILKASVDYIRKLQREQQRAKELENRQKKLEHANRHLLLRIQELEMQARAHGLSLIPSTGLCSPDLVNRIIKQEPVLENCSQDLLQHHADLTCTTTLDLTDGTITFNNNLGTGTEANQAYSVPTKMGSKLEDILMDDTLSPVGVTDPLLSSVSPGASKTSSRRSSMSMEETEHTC
The assay is described as follows: TRPM1 promoter luciferase signal decrease, dose response, MITF inhibitor project, cell-based, SK-MEL-5, cherry-picked, set 3 (AID 493073).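 Further: SK-MEL-5 melanoma cells with luciferase driven by the MITF target TRPM1 promoter.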 Format: functional.

Assay [10] is described as follows: A375 melanoma cell cytotoxicity, dose response, counter-screen for MITF inhibitor project, CellTiter-Glo luminescence, dry powder, set 2 (AID 624489).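 Further: actives are compounds lowering A375 viability meaning general cytotoxicity.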 Format: functional, cell-based. The note with it: A-375. Background: The purpose of a counterscreen is to sort out artefacts and off-target activity.
The next assay concerns the target T3, Hexokinase HKDC1 (Homo sapiens, UniProt Q2TB90).
T3 sequence (Q2TB90 whole entry): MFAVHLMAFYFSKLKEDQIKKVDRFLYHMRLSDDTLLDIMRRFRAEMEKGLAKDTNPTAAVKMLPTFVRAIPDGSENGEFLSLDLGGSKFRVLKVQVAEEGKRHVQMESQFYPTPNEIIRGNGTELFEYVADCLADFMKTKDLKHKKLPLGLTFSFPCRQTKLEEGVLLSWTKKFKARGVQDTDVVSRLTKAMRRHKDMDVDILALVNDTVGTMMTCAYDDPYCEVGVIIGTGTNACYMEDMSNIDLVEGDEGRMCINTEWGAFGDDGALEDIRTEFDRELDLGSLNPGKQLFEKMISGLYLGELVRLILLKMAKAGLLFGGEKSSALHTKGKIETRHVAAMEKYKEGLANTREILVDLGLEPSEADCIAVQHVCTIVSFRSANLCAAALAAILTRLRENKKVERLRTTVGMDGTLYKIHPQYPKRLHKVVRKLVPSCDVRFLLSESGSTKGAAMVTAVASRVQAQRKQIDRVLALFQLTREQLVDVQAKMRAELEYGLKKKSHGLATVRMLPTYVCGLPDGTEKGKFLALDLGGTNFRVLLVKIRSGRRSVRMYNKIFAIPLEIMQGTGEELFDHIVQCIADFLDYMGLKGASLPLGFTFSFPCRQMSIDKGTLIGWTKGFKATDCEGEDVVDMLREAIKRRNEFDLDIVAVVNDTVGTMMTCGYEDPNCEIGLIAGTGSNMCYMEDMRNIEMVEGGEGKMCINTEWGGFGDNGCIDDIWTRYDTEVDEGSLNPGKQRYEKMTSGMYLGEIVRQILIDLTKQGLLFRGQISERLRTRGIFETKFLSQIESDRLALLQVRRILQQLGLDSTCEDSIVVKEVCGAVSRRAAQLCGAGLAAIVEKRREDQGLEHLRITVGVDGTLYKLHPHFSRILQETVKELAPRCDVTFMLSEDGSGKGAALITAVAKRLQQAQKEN
The assay is described as follows: HKDC1 hexokinase activators, dose response, biochemical, W721R variant (AID 504730). Format: functional.

The target in assay [11] is T4, Sentrin-specific protease 8 (Homo sapiens, UniProt Q96LD8).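 Further: luminescence read-out of SENP8 inhibition, dose-response confirmation following an ultra-high-throughput screen.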
T4 sequence (Q96LD8 whole entry): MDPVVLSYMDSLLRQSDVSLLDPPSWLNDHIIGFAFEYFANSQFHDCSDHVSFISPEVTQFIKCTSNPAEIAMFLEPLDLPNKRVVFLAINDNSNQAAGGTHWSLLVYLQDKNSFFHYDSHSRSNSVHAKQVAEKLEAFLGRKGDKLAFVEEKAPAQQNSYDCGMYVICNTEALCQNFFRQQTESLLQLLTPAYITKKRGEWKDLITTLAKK
Format: functional.

The target of the next assay is NS3 (Hepatitis C virus, UniProt A3EZJ3). Description: PubChem AID 2173. The arrangement: species or system Hepacivirus hominis.
Sequence of NS3 (A3EZJ3 whole entry): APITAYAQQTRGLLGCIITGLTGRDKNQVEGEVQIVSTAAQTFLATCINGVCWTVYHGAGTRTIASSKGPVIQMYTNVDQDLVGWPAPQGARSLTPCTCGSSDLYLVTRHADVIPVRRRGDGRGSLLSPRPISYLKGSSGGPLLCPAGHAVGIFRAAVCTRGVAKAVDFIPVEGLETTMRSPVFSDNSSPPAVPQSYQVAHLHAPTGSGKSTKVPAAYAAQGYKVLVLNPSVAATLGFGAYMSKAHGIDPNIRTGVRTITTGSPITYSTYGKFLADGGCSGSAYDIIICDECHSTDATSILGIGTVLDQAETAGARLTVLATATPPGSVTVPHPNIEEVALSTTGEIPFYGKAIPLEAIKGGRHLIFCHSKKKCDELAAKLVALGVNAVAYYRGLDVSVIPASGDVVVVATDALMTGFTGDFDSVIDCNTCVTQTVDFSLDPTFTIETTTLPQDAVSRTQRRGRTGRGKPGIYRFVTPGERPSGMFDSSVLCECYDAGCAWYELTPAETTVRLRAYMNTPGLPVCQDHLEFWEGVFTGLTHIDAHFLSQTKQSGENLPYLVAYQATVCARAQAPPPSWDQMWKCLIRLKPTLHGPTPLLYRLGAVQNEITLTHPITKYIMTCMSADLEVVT

Molecules are shown by their SMILES. Calls of active or inactive are those of the source.

`O=C(O)CSc1cc(NS(=O)(=O)c2ccc(Br)cc2)c2ccccc2c1O`: the CC50 in the assay on Vero is 34 µM (active); in assay [1] it was 7.81 µM (active).
As to `O=C(CC(O)(C(F)(F)F)C(F)(F)F)Nc1ccc(Cl)c(Cl)c1`, the EC50 in assay [2] is 21.7 µM (not active). The AC50 in assay [3] is 2.27 µM (active).
On to `O=C(CNc1cccc2ccccc12)N/N=C/c1ccc([N+](=O)[O-])o1`, for which the IC50 is 14.3 µM (active) with HEK293 [4] and 11.5 µM (inactive) in the assay on HEK293 [6]. The values for the EC50 in [5] and in assay [7] were 5.55 µM (active) and 17.5 µM (active), respectively. The cytotoxic concentration (CC50) in assay [8] was 17.5 µM (active). Further, the concentration at half-maximal activity (AC50) in assay [9] is 5.05 µM (active); in assay [10] it was > 70 µM (inactive).
As to `O=C1NC(=S)N/C1=C/c1cc2c(cc1[N+](=O)[O-])OCO2`, the EC50 at Hexokinase HKDC1 is > 80 µM (inactive). Moreover, the IC50 in assay [11] is 9.01 µM (active).
Take `Cc1ccc(NC(=O)C2=C(c3ccccc3)S(=O)(=O)CCS2(=O)=O)cc1`: the IC50 at NS3 was 9.23 µM (active).

Usually CC50 stands for the concentration at which the toxic effect on the cells reaches its halfway point. The EC50 is the concentration at which the effect is half-maximal. By AC50 is commonly meant the concentration at which the activity in the assay is half-maximal. Broadly, the IC50 is the concentration needed to halve the response being measured.
